{"source": "patent US12472223B2", "about": "“Methods for reducing symptoms of multiple sclerosis using a six-amino acid long peptide that inhibits CD40-CD154 interaction” (OP-T LLC, priority 2019, dated 2025)", "key": {"NOD mice": {"system": "NOD mice", "assay": "Development of diabetes in NOD mice treated with CD154 peptides", "type": "in vivo, mouse", "conditions": "100 μg peptide into tail vein of 8-9 week old NOD mice, again after 3 days, then weekly; diabetes = blood glucose >250 mg/dL for three consecutive days", "method": "(§1) Peptides were designed based on the amino acid sequence of mouse CD154 protein (SEQ ID NO:1) in the SwissPro database. These pre-designed peptides were then ordered from as made-to-order by New England Peptide. The lyophilized peptides were suspended in phosphate buffered saline at 1 mg/ml. 100 μg of a particular peptide was then injected into the tail vein of 8-9 week old NOD mice. Control mice received 100 μl of phosphate buffered saline. This is well before the onset of diabetes, but after damage to pancreatic islets has begun. Three days after the initial injection, another 100 μg of peptide (or 100 μl of phosphate buffered saline in the case of the Control mice) was injected into the tail vein. Mice were then injected with peptide (or phosphate buffered saline) on a weekly basis. At 10 weeks of age, mice were monitored for diabetes, as indicated by a blood glucose level greater than 250 mg/dL for three consecutive days. During this time, blood was also taken from the tail vein, or by sub-mandibular venal puncture, and the level of CD4+ and CD8+ cells determined by flow cytometry using antibodies for CD4 protein and CD8 protein."}, "CD4+ and CD8+ cells": {"system": "CD4+ and CD8+ cells", "assay": "CD4/CD8 ratio in blood of peptide-treated NOD mice (flow cytometry)", "type": "in vivo, mouse", "method": "as §1"}, "CD62L": {"system": "CD62L", "assay": "CD62L expressing T cells from dLN and spleen of KGYY6 treated EAE mice", "type": "in vivo, mouse", "conditions": "Th40 and conventional CD4 T cells, versus PBS", "source_text": "L-selectins are expressed on T cells and, depending upon activation status, expression rapidly cycles between high and low levels, thus allowing cells to crawl to areas of inflammation, and to extravasate into the tissue. (Mao-Draayer, Y., et al., Clinical Immunol. 175:10-5, 2017; Butcher, E. C., et al., Science, 272 (5258): 60-6, 1997). CD62L is an L-selectin that has generally been associated with naïve T cells, given its importance in lymph node retention. (Chao, C. C., et al., J. Immunol., 159:1686, 1997; Tedder, T. F., et al., Behring Inst. Mitt., 92:165, 1993). Rather than considering CD62L as a biomarker for naïve T cells, it may be possible that CD62L may be involved in lymph node retention of potentially pathogenic effector cells. The number of CD62L expressing Th40 and conventional CD4 T cells from both spleens and dLN of KGYY6 treated mice were compared to mice treated with vehicle (PBS) only (the control)."}, "CD40": {"system": "CD40", "assay": "FITC-conjugated KGYY6 staining of PBMC, dLN and splenic lymphocytes", "type": "binding, mouse", "source_text": "To confirm that KGYY6 binds to the intended target cells, peripheral blood was […], dLN lymphocytes, and splenic lymphocytes from mice at 6 and 13 days out from receiving the full EAE regimen. These cells were then stained with an FITC-conjugated KGYY6.\nTo confirm that the KGYY6 peptide binds specifically to CD40, PBMC was stained from C57BL/6 mice that have the CD154-interacting domain of CD40 knocked out (B6.CD40KO).\nFIG. 24A is a dot plot of PBMC, dLN, and splenic lymphocytes that were harvested and then stained. […] CD40 with heat-mapping for KGYY6. Dot plots on the right are CD62L v. CD44 with heat-mapping for KGYY6. […] The results shown in FIG. 24A are from 6 days post EAE induction. FIG. 24B is a histogram depicting KGYY6 staining of B6.CD40KO, control, non-induced C57BL/6, and EAE-induced C57BL/6 mice, 6 and 13 days post induction. Data represents two mice at day 6, three mice at day 13, all with similar results."}, "[1]": {"system": "Th40 or conventional CD4 T cells", "assay": "Memory cell and Th40 cell levels in KGYY6 treated EAE mice", "type": "in vivo, mouse", "method": "This study sought to determine whether treatment with KGYY6 had any effect on memory cell levels when administered as described in Example 7 above.\nC57BL/6 mice were EAE induced then lymphocytes were stained and gated on Th40 or conventional CD4 T cells and effector and central memory cell levels analyzed in dLN (FIGS. 22A-22D) and spleen (FIGS. 23A-D). Significance was calculated by t-test."}, "EAE induced C57BL/6 mice": {"system": "EAE induced C57BL/6 mice", "assay": "EAE disease score in MOG35-55 induced C57BL/6 mice", "type": "in vivo, mouse", "source_text": "One group of mice-C57BL/6 mice from Taconic (Hudson, NY, USA) received KGYY6 (SEQ ID NO: 29) intravenous (IV) injections 3 days and 1 day prior to EAE induction, while another control group received a vehicle of phosphate buffered saline (PBS). EAE was then induced and the mice started to show symptoms on day 10, which is standard for these mice under these conditions. This is further depicted in FIG. 11. On days 13, 20, and 27, the KGYY6 group of mice receive a boost of peptide, while the other group again received PBS via IV injection. […] By day 13, there was a statistically significant difference that lasted throughout the experiment. In FIG. 11—*—asterisks—denote p-value: *—one asterisk is <0.05; **—two asterisks is <0.01; […] is <0.001; and ****—four asterisks is <0.0001. This is a two-way ANOVA with Sidak's multiple comparisons test. Arrows in above lines in FIG. 11 represent days −3, −1, 13, 20, and 27, which correspond to days on which the mice received the KGYY6. Mice were disease scored daily in this study as described in more detail below.\nThe EAE mouse model can be highly variable even when attempting to control all possible parameters. This variability in EAE may be due to seasonal variations as well as litter differences in the mice. In order to minimize litter-to-litter and seasonal variations, experiments and studies were performed that had 10 mice per group and the mice were randomly mixed once they arrived from the vendor. Female 10-12 week old C57BL/6 mice were immunized subcutaneously on the upper back/neck with 100 μl completely emulsified MOG35-55 peptide (50 μg in 50 μl PBS) and complete Freund's adjuvant (CFA; 75 μg M. Tuberculosis H37 RA (Becton Dickinson and Company (Franklin Lake, NJ, USA)) in 50 μl incomplete Freund's adjuvant (mineral oil)), followed by i.p. pertussis toxin (PT; 200 ng (Sigma-Aldrich® (St. Louis, MO, USA)) in 100 μl PBS) injections. Mice were then randomly assigned to a treatment cohort or vehicle control cohort. One cohort of mice received intravenous injections of the KGYY6 (SEQ ID NO: 29)—25 μg in 100 μl PBS per mouse on days −3, −1, 13, 20, and 27 as described above. Day 0 is the reference starting point for EAE induction. Another cohort received peptide on days −3, −1, 6, 11, 13, and 15. Vehicle control mice received injections of PBS.\nAll mice were monitored daily for disease and scored in the following manner: 0—no abnormalities; 0.5—clutching hind limbs; 1—limp tail or weak hind limbs and/or wobbly gait; 1.5—limp tail and clutching hind limbs; 2—limp tail and weak hind limbs and/or wobbly gait wherein the mouse supports itself and propels itself using hind limbs; 2.5—limp tail and weak hind limbs and/or wobbly gait wherein the mouse cannot support and propel itself using hind limbs, but the paws are moving. 3—limp tail and one weak hind limb, while the other hind limb is completely paralyzed wherein the mouse uses the weak hind limb to propel itself in some fashion. […] 5—complete paralysis of hind quarter and weak forelimb(s). The data are reported as the mean daily clinical score for all animals in each group. Mice reaching a level 5 or losing more than 20% of their bodyweight are euthanized.\nFor this study, a group of EAE induced mice were treated with KGYY6 via intravenous (IV) injections on days 11, 13, and 15. Another group of mice were pretreated on days −3 and −1, and received further treatments on days 6, 11, 13, and 15. […]"}, "CD69": {"system": "CD69", "assay": "CD69 expression on T cells from dLN and spleen of KGYY6 treated EAE mice", "type": "in vivo, mouse", "conditions": "for number of Th40 cells expressing CD69: after 33 days", "method": "In this study, the number of CD69 expressing cells were measured and determined in draining lymph nodes (dLN) and spleens harvested from EAE mice at the end of the studies as described in Examples 7, 8, and 9 and the administration of KGYY6, after 33 days.\nLymphocytes from dLN or spleen were stained and gated on the Th40 or conventional CD4 T cells then CD69 expression was analyzed."}, "intracellular cytokines": {"system": "intracellular cytokines", "assay": "Intracellular cytokine expression in Th40 and conventional CD4 T cells ex vivo from KGYY6 treated EAE mice", "parameters": "species or system mouse", "method": "Intracellular cytokine expression profiles in Th40 and conventional CD4 T cells were examined immediately ex-vivo after 33 days and at the end of the study as described in Example 7.\nOther cytokines, such as TNFα, IFNγ, IL-2, and IL-17A were unchanged in response to KGYY6 treatment in both cell types. […] Lymphocytes from dLN or spleen were stained and gated on the Th40 or conventional CD4 T cells then intracellular levels were analyzed. FIGS. 18A-D represent the Th40 cells from spleen. FIGS. 19A-D represent the Th40 cells from dLN. FIGS. 20A-D represent conventional CD4 T cells from the spleen. FIGS. 21A-D represent conventional CD4 T cells from dLN."}, "[2]": {"conditions": "spleen and dLN, Th40 or conventional CD4 T cells"}, "[3]": {"conditions": "Th40 and conventional CD4 T cells, dLN and spleen"}}}
{"compound": "WAKKGYYTMK [10-mer]", "values": [{"measurement": "development of diabetes in NOD mice", "setting": "NOD mice", "value": "significant effects on the development of diabetes"}]}
{"compound": "CSCC[C@H](NC(=O)[C@@H](NC(=O)[C@H](Cc1ccc(O)cc1)NC(=O)[C@H](Cc1ccc(O)cc1)NC(=O)CNC(=O)[C@H](CCCCN)NC(=O)[C@H](CCCCN)NC(=O)[C@H](C)NC(=O)[C@H](Cc1c[nH]c2ccccc12)NC(=O)[C@H](CCC(N)=O)NC(=O)[C@H](CC(C)C)NC(=O)[C@@H](N)C(C)C)[C@@H](C)O)C(=O)N[C@@H](CCCCN)C(=O)N[C@@H](CO)C(=O)N[C@@H](CC(N)=O)C(=O)O", "note": "[15-mer peptide, VLQWAKKGYYTMKSN]", "values": [{"measurement": "compromise of the immune system as determined by the CD4/CD8 ratio", "setting": "CD4+ and CD8+ cells", "value": "did not result in compromise of the immune system"}]}
{"compound": "AKKGYY [KGYY6, 6-amino acid core region of the 15-mer]", "values": [{"measurement": "number of CD62L expressing cells", "setting": "CD62L", "value": "no difference in number of CD62L expressing cells"}, {"measurement": "staining of memory cells (CD62L versus CD44)", "setting": "CD40; PBMC and spleen samples", "value": "stained primarily effector (CD44^+CD62L^−) and central memory (CD44^+CD62L^+) cells"}, {"measurement": "staining of B6.CD40KO cells", "setting": "CD40; PBMC, CD154-interacting domain of CD40 knocked out", "value": "did not stain the B6.CD40KO cells"}, {"measurement": "staining of CD40- cells", "setting": "CD40; PBMC, dLN, spleen", "value": "not the CD40^− cells"}, {"measurement": "staining of CD4+CD40+ cells", "setting": "CD40; PBMC, dLN, spleen, 6 and 13 days post EAE induction", "value": "stained the CD4^+CD40^+ cells"}, {"measurement": "staining of memory cells (CD62L versus CD44)", "setting": "CD40; dLN samples", "value": "more diffuse pattern in dLN samples"}, {"measurement": "staining of C57BL/6 PBMC", "setting": "CD40; non-induced and EAE-induced C57BL/6 mice", "value": "readily stained both the non-induced and EAE-induced C57BL/6 mice"}, {"measurement": "Th40 cell population", "setting": "[1]; EAE mice treated with KGYY6", "value": "did not cause a decrease in the Th40 cell population"}, {"measurement": "CD44+CD62L+ (central memory) cell levels", "setting": "[1]; [2]", "value": "no difference in the levels of those memory phenotypes"}, {"measurement": "CD44+CD62L- (effector memory) cell levels", "setting": "[1]; [2]", "value": "no difference in the levels of those memory phenotypes"}, {"measurement": "EAE disease course", "setting": "EAE induced C57BL/6 mice; 25 μg IV on days -3, -1, 13, 20, 27, versus PBS control", "value": "significantly less severe"}, {"measurement": "EAE disease course", "setting": "EAE induced C57BL/6 mice; pretreated days -3, -1, further treatments days 6, 11, 13, 15, versus control", "value": "significantly less severe disease course"}, {"measurement": "EAE disease severity, early versus later boosts", "setting": "EAE induced C57BL/6 mice; pretreated, boosts from day 6 versus from day 13", "value": "overall less severe disease if the boosts started early"}, {"measurement": "EAE disease course", "setting": "EAE induced C57BL/6 mice; treat-at-symptom group, IV on days 11, 13, 15", "value": "less severe disease course compared to control"}, {"measurement": "CD69 expressed per cell", "setting": "CD69; Th40 cells from spleen, versus vehicle", "value": "significantly more CD69 per cell"}, {"measurement": "CD69 expressed per cell", "setting": "CD69; conventional CD4 T cells", "value": "did no change the amount of CD69 per cell"}, {"measurement": "number of conventional CD4 T cells expressing CD69", "setting": "CD69; dLN and spleen, versus controls", "value": "increased by KGYY6 treatment"}, {"measurement": "number of Th40 cells expressing CD69", "setting": "CD69; dLN, versus vehicle", "value": "increased"}, {"measurement": "number of Th40 cells expressing CD69", "setting": "CD69; spleen, versus untreated", "value": "significantly greater number"}, {"measurement": "IFNγ", "setting": "intracellular cytokines; [3]", "value": "unchanged"}, {"measurement": "IL-2", "setting": "intracellular cytokines; [3]", "value": "unchanged"}, {"measurement": "IL-17A", "setting": "intracellular cytokines; [3]", "value": "unchanged"}, {"measurement": "TNFα", "setting": "intracellular cytokines; [3]", "value": "unchanged"}, {"measurement": "intracellular IL-10", "setting": "intracellular cytokines; Th40 cells, dLN or spleen", "value": "no difference in intracellular IL-10 expression"}, {"measurement": "intracellular IL-10", "setting": "intracellular cytokines; conventional CD4 T cells from dLN, day 33", "value": "increase in intracellular IL-10"}, {"measurement": "development of diabetes in NOD mice", "setting": "NOD mice", "value": "significant effects on the development of diabetes"}]}
{"compound": "KGYY (listed as Mus musculus)", "values": [{"measurement": "EAE scores", "setting": "EAE induced C57BL/6 mice; 4-mer administered prior to onset and then post onset, versus untreated mice", "value": "lower EAE scores compared to untreated mice"}]}
